Results reported in patent US8034377B2, “DHA esters and use thereof in treatment and prevention of cardiovascular disease” (Pierre Fabre Medicament, priority 2006, dated 2011).
Read-outs that look alike come from different tables or passages of the source.

Target: T1, human Kv 1.5 channel (hKv 1.5) (Homo sapiens, UniProt P22460)
T1 construct: expressed in transfected cells
Assay: Ultrarapid potassium current (IKur), whole-cell patch-clamp in HEK 293-hKv 1.5 cells
Assay type: cell-based
Description: The cardiac action potential is the basic electrical unit of excitable cardiac cells and represents the activity of several types of ion channels responsible for the various phases of the action potential. Different types of action potentials correspond to different cardiac regions, thus allowing sequential and coordinated activity in these regions. For this reason, Kv 1.5 potassium channels, coded by the KCNA5 gene, are expressed only in auricle tissue and are responsible for the ultrarapid potassium current (IKur) which acts in the repolarization of the auricular action potential. This highly localized expression of Kv 1.5 is in fact a target of choice in the treatment of auricular fibrillation, a pathology in which changes in auricular action potentials are observed.
Thus, the effects of DHA and EPA on IKur were studied. For this purpose, the human isoform of the Kv 1.5 channel (hKv 1.5) was transfected in a stable manner in HEK 293 (human embryonic kidney) cells and the current resulting from the activity of these channels was studied using a whole-cell patch-clamp technique.
HEK 293-hKv 1.5 cells are grown under standard conditions (37° C., incubator at […] and 5% CO2) in Falcon dishes up to 80% confluence. They are then removed and cultured in 35 mm petri dishes containing the following culture medium: DMEM (Invitrogen); 10% fetal bovine serum (Invitrogen); a mixture of 100 U/ml penicillin, 100 μg/ml streptomycin and 0.25 mg/ml glutamine (Invitrogen); and 1.25 mg/ml of Geneticin® as a selective antibiotic.
IKur is studied using the whole-cell patch-clamp technique at ambient temperature (19-22° C.). The pipette medium contains: 125 mM K-aspartate, 20 mM KCl, 10 mM EGTA, 5 mM HEPES, 5 mM Mg-ATP, 1 mM MgCl2, pH 7.3 (KOH). The extracellular medium contains: 140 mM NaCl, 20 mM HEPES, 5 mM D(+)-glucose, 5 mM KCl, 2 mM CaCl2, 1 mM MgCl2, pH 7.4 (NaOH).
IKur is induced every 15 seconds by 300 ms, +60 mV depolarizing pulses from a −80 mV holding potential, followed by −50 mV repolarization. The amplitude of the current peak is established from the maximum current obtained during the first 100 ms of the depolarizing pulse. The amplitude of the current at the end of the pulse is determined during the last 20 ms of the depolarizing pulse.
DHA and EPA are supplied by Sigma. Stock solutions (10 mM) are prepared in ethanol and the final concentration of solvent is 0.25%.

T1 sequence (P22460 whole entry): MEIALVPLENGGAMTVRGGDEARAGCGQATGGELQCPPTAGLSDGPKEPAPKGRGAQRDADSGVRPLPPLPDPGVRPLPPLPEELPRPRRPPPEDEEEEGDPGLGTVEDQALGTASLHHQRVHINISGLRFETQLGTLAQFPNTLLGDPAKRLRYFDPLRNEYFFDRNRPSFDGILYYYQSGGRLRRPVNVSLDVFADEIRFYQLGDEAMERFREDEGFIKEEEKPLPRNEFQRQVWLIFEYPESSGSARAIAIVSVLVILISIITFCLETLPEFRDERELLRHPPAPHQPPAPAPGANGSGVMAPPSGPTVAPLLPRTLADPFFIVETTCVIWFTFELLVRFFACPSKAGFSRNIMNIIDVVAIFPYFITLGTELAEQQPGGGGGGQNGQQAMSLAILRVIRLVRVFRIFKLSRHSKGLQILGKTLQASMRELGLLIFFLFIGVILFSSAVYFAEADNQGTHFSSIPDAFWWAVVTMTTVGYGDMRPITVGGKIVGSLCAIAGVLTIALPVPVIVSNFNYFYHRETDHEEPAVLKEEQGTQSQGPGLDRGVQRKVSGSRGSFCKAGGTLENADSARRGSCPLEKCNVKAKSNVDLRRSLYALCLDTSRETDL

| Compound | Percent inhibition of Peak IKur, Mean (1 μM, HEK 293-hKv 1.5, +60 mV pulse, max current in first 100 ms) | Percent inhibition of End of pulse IKur, Mean (1 μM, HEK 293-hKv 1.5, last 20 ms of 300 ms depolarizing pulse) | Percent inhibition of Peak IKur, Mean (3.2 μM, HEK 293-hKv 1.5, +60 mV pulse, max current in first 100 ms) | Percent inhibition of End of pulse IKur, Mean (3.2 μM, HEK 293-hKv 1.5, last 20 ms of 300 ms depolarizing pulse) | Percent inhibition of Peak IKur, Mean (10 μM, HEK 293-hKv 1.5, +60 mV pulse, max current in first 100 ms) | Percent inhibition of End of pulse IKur, Mean (10 μM, HEK 293-hKv 1.5, last 20 ms of 300 ms depolarizing pulse) | Percent inhibition of Peak IKur, Mean (25 μM, HEK 293-hKv 1.5, +60 mV pulse, max current in first 100 ms) | Percent inhibition of End of pulse IKur, Mean (25 μM, HEK 293-hKv 1.5, last 20 ms of 300 ms depolarizing pulse) | inhibition at 1 µM (1 μM, HEK 293-hKv 1.5, +60 mV pulse, max current in first 100 ms, read-out: Percent inhibition of Peak IKur, Mean) | inhibition at 1 µM (1 μM, HEK 293-hKv 1.5, last 20 ms of 300 ms depolarizing pulse, read-out: Percent inhibition of End of pulse IKur, Mean) | inhibition at 3.2 µM (3.2 μM, HEK 293-hKv 1.5, +60 mV pulse, max current in first 100 ms, read-out: Percent inhibition of Peak IKur, Mean) | inhibition at 3.2 µM (3.2 μM, HEK 293-hKv 1.5, last 20 ms of 300 ms depolarizing pulse, read-out: Percent inhibition of End of pulse IKur, Mean) | inhibition at 5.6 µM (HEK 293-hKv 1.5, +60 mV pulse, max current in first 100 ms, read-out: Percent inhibition of Peak IKur, Mean) | inhibition at 5.6 µM (HEK 293-hKv 1.5, last 20 ms of 300 ms depolarizing pulse, read-out: Percent inhibition of End of pulse IKur, Mean) | inhibition at 10 µM (10 μM, HEK 293-hKv 1.5, +60 mV pulse, max current in first 100 ms, read-out: Percent inhibition of Peak IKur, Mean) | inhibition at 10 µM (10 μM, HEK 293-hKv 1.5, last 20 ms of 300 ms depolarizing pulse, read-out: Percent inhibition of End of pulse IKur, Mean) | inhibition at 25 µM (25 μM, HEK 293-hKv 1.5, +60 mV pulse, max current in first 100 ms, read-out: Percent inhibition of Peak IKur, Mean) | inhibition at 25 µM (25 μM, HEK 293-hKv 1.5, last 20 ms of 300 ms depolarizing pulse, read-out: Percent inhibition of End of pulse IKur, Mean) |
| --- | --- | --- | --- | --- | --- | --- | --- | --- | --- | --- | --- | --- | --- | --- | --- | --- | --- | --- |
| CC/C=C\C/C=C\C/C=C\C/C=C\C/C=C\CCCC(=O)O [EPA] | 14.6% | 14.9% | 16.1% | 19.9% | 17.5±6.4% | 36.6% | 5.4% | 61.6±7.3% | – | – | – | – | – | – | – | – | – | – |
| CC/C=C\C/C=C\C/C=C\C/C=C\C/C=C\C/C=C\CCC(=O)O [DHA, docosahexaenoic acid] | – | – | – | – | – | – | – | – | 8.2% | 10.1% | 10.9% | 14.5% | 15.4% | 33.7% | 22.6% | 78% | 58.1 ± 13.6% | 86.5 ± 3.4% |
